Measured values from patent US20220089592A1, “IMIDAZO[1,2-A]PYRIDINYL DERIVATIVES AS IRAK4 INHIBITORS” (priority 2019, published 2022).

biological target: T1, IRAK4 (Homo sapiens, UniProt Q9NWZ3); test: 2-hour 1 mM ATP IRAK4 Biochemical assay (as above, but with 100 pM IRAK4 and 1 mM ATP); conditions: IRAK4 MSD BIOCHEMICAL (1 mM ATP) IC50 (μM), 100 pM IRAK4, 2 hours
T1 sequence (Q9NWZ3 1-460): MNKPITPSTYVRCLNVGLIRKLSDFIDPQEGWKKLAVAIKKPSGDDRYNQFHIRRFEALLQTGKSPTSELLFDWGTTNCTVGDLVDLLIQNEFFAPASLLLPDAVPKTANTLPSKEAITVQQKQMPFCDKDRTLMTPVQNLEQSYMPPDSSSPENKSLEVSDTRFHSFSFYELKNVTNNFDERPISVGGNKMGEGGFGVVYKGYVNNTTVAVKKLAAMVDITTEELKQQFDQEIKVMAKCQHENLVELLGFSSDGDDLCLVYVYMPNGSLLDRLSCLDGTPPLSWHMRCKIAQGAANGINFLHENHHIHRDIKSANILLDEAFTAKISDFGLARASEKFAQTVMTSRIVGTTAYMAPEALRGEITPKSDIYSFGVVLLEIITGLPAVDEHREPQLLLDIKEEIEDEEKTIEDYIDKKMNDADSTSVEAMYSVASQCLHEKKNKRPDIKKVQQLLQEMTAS
Summary of the method: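 Run with 100 pM IRAK4 and 1 mM ATP for 2 hours, quenched with EDTA pH 8. Phosphorylated biotinylated peptide captured on streptavidin MSD plates and detected with anti-phosphothreonine antibody plus Sulfo-Tag secondary by electrochemiluminescence.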

SMILES | IC50
CC(C)Oc1c(NC(=O)c2ccnc3ccnn23)cn2cc(C34COC(C)(C3)C4)nc2c1F [Example 433, N-(8-fluoro-7-isopropoxy-2-(1-methyl-2-oxabicyclo[2.1.1]hexan-4-yl)imidazo[1,2-a]pyridin-6-yl)pyrazolo[1,5-a]pyrimidine-7-carboxamide] | 0.013 µM
CC(C)Oc1c(NC(=O)c2cccc3ncnn23)cn2cc(C34COC(C)(C3)C4)nc2c1F [Example 434, N-(8-fluoro-7-isopropoxy-2-(1-methyl-2-oxabicyclo[2.1.1]hexan-4-yl)imidazo[1,2-a]pyridin-6-yl)-[1,2,4]triazolo[1,5-a]pyridine-5-carboxamide] | 0.004 µM
COc1ncccc1C(=O)Nc1cn2cc(C34CCC(C)(C3)OC4)nc2c(F)c1OC(C)C (stereo not drawn) [Example 435, N-(8-fluoro-7-isopropoxy-2-(1-methyl-2-oxabicyclo[2.2.1]heptan-4-yl)imidazo[1,2-a]pyridin-6-yl)-2-methoxynicotinamide 2,2,2-trifluoroacetate] | 0.012 µM
COc1ncccc1C(=O)Nc1cn2cc(C34COC(C)(C3)C4)nc2c(F)c1OC1CCC1 [Example 436, N-(7-cyclobutoxy-8-fluoro-2-(1-methyl-2-oxabicyclo[2.1.1]hexan-4-yl)imidazo[1,2-a]pyridin-6-yl)-2-methoxynicotinamide 2,2,2-trifluoroacetate] | 0.029 µM
Cn1ccc(C(=O)Nc2cn3cc(C45COC(C)(C4)C5)nc3c(F)c2OC2CCCC2)n1 [Example 437, N-(7-(cyclopentyloxy)-8-fluoro-2-(1-methyl-2-oxabicyclo[2.1.1]hexan-4-yl)imidazo[1,2-a]pyridin-6-yl)-1-methyl-1H-pyrazole-3-carboxamide 2,2,2-trifluoroacetate] | 0.004 µM
CCc1cccc(C(=O)Nc2cn3cc(C4CCOCC4)nc3cn2)n1 [Example 438, 6-ethyl-N-(2-(tetrahydro-2H-pyran-4-yl)imidazo[1,2-a]pyrazin-6-yl)picolinamide] | 0.007 µM
COc1nc(NC(=O)c2coc(C(F)F)n2)cn2cc(C34COC(C)(C3)C4)nc12 [Example 439, 2-(difluoromethyl)-N-(8-methoxy-2-(1-methyl-2-oxabicyclo[2.1.1]hexan-4-yl)imidazo[1,2-a]pyrazin-6-yl)oxazole-4-carboxamide] | 0.063 µM
CCOc1nc(C(=O)Nc2cn3cc(C45COC(C)(C4)C5)nc3c(OC)n2)co1 [Example 440, 2-ethoxy-N-(8-methoxy-2-(1-methyl-2-oxabicyclo[2.1.1]hexan-4-yl)imidazo[1,2-a]pyrazin-6-yl)oxazole-4-carboxamide] | 0.047 µM
COc1nc(NC(=O)c2ccn(C)n2)cn2cc(C34COC(C)(C3)C4)nc12 [Example 441, N-(8-methoxy-2-(1-methyl-2-oxabicyclo[2.1.1]hexan-4-yl)imidazo[1,2-a]pyrazin-6-yl)-1-methyl-1H-pyrazole-3-carboxamide] | 0.118 µM
COc1nc(NC(=O)c2cccc3ccnn23)cn2cc(C34COC(C)(C3)C4)nc12 [Example 442, N-(8-methoxy-2-(1-methyl-2-oxabicyclo[2.1.1]hexan-4-yl)imidazo[1,2-a]pyrazin-6-yl)pyrazolo[1,5-a]pyridine-7-carboxamide] | 0.024 µM
COc1ccccc1C(=O)Nc1cn2cc(C34COC(C)(C3)C4)nc2c(OC)n1 [Example 443, 2-methoxy-N-(8-methoxy-2-(1-methyl-2-oxabicyclo[2.1.1]hexan-4-yl)imidazo[1,2-a]pyrazin-6-yl)benzamide] | 0.023 µM
COc1nc(NC(=O)c2cccc(C)c2F)cn2cc(C34COC(C)(C3)C4)nc12 [Example 444, 2-fluoro-N-(8-methoxy-2-(1-methyl-2-oxabicyclo[2.1.1]hexan-4-yl)imidazo[1,2-a]pyrazin-6-yl)-3-methylbenzamide] | 0.039 µM
COc1nc(NC(=O)c2cccc3c2OCC3)cn2cc(C34COC(C)(C3)C4)nc12 [Example 445, N-(8-methoxy-2-(1-methyl-2-oxabicyclo[2.1.1]hexan-4-yl)imidazo[1,2-a]pyrazin-6-yl)-2,3-dihydrobenzofuran-7-carboxamide 2,2,2-trifluoroacetate] | 0.012 µM
COc1nc(NC(=O)c2cccc3c2OCC3(F)F)cn2cc(C34COC(C)(C3)C4)nc12 [Example 446, 3,3-difluoro-N-(8-methoxy-2-(1-methyl-2-oxabicyclo[2.1.1]hexan-4-yl)imidazo[1,2-a]pyrazin-6-yl)-2,3-dihydrobenzofuran-7-carboxamide] | 0.008 µM
COc1ncccc1C(=O)Nc1cn2cc(C34COC(C)(C3)C4)nc2c(OC)n1 [Example 447, 2-methoxy-N-(8-methoxy-2-(1-methyl-2-oxabicyclo[2.1.1]hexan-4-yl)imidazo[1,2-a]pyrazin-6-yl)nicotinamide 2,2,2-trifluoroacetate] | 0.015 µM
COc1cccc(C(=O)Nc2cn3cc(C45COC(C)(C4)C5)nc3c(OC)n2)n1 [Example 448, 6-methoxy-N-(8-methoxy-2-(1-methyl-2-oxabicyclo[2.1.1]hexan-4-yl)imidazo[1,2-a]pyrazin-6-yl)picolinamide 2,2,2-trifluoroacetate] | 0.023 µM
COc1nc(NC(=O)c2cccc(C(F)(F)F)n2)cn2cc(C34COC(C)(C3)C4)nc12 [Example 449, N-(8-methoxy-2-(1-methyl-2-oxabicyclo[2.1.1]hexan-4-yl)imidazo[1,2-a]pyrazin-6-yl)-6-(trifluoromethyl)picolinamide 2,2,2-trifluoroacetate] | 0.064 µM
COc1nc(NC(=O)c2cccc3c2OCC3(F)F)cn2cc(C3CCOCC3)nc12 [Example 454, 3,3-difluoro-N-(8-methoxy-2-(tetrahydro-2H-pyran-4-yl)imidazo[1,2-a]pyrazin-6-yl)-2,3-dihydrobenzofuran-7-carboxamide] | 0.014 µM
COc1nc(NC(=O)c2cccc(C)n2)cn2cc(C3CCOCC3)nc12 [Example 455, N-(8-methoxy-2-(tetrahydro-2H-pyran-4-yl)imidazo[1,2-a]pyrazin-6-yl)-6-methylpicolinamide] | 0.043 µM
COc1nc(NC(=O)c2cccc(C(C)C)n2)cn2cc(C3CCOCC3)nc12 [Example 456, 6-isopropyl-N-(8-methoxy-2-(tetrahydro-2H-pyran-4-yl)imidazo[1,2-a]pyrazin-6-yl)picolinamide] | 0.014 µM
COc1ccccc1C(=O)Nc1cn2cc(C3CCOCC3)nc2c(OC)n1 [Example 457, 2-methoxy-N-(8-methoxy-2-(tetrahydro-2H-pyran-4-yl)imidazo[1,2-a]pyrazin-6-yl)benzamide 2,2,2-trifluoroacetate] | 0.096 µM
COc1ncccc1C(=O)Nc1cn2cc(C3CCOCC3)nc2c(OC)n1 [Example 458, 2-methoxy-N-(8-methoxy-2-(tetrahydro-2H-pyran-4-yl)imidazo[1,2-a]pyrazin-6-yl)nicotinamide 2,2,2-trifluoroacetate] | 0.036 µM
CCOc1ncccc1C(=O)Nc1cn2cc(C3CCOCC3)nc2c(OC)n1 [Example 459, 2-ethoxy-N-(8-methoxy-2-(tetrahydro-2H-pyran-4-yl)imidazo[1,2-a]pyrazin-6-yl)nicotinamide] | 0.022 µM
CCCOc1ncccc1C(=O)Nc1cn2cc(C3CCOCC3)nc2c(OC)n1 [Example 460, N-(8-methoxy-2-(tetrahydro-2H-pyran-4-yl)imidazo[1,2-a]pyrazin-6-yl)-2-propoxynicotinamide] | 0.025 µM
COc1nc(NC(=O)c2ccn(C(C)C)n2)cn2cc(C3CCOCC3)nc12 [Example 462, 1-isopropyl-N-(8-methoxy-2-(tetrahydro-2H-pyran-4-yl)imidazo[1,2-a]pyrazin-6-yl)-1H-pyrazole-3-carboxamide 2,2,2-trifluoroacetate] | 0.095 µM
CCn1ccc(C(=O)Nc2cn3cc(C4CCOCC4)nc3c(OC)n2)n1 [Example 463, 1-ethyl-N-(8-methoxy-2-(tetrahydro-2H-pyran-4-yl)imidazo[1,2-a]pyrazin-6-yl)-1H-pyrazole-3-carboxamide 2,2,2-trifluoroacetate] | 0.104 µM
COc1nc(NC(=O)c2ccn(CC(C)C)n2)cn2cc(C3CCOCC3)nc12 [Example 464, 1-isobutyl-N-(8-methoxy-2-(tetrahydro-2H-pyran-4-yl)imidazo[1,2-a]pyrazin-6-yl)-1H-pyrazole-3-carboxamide] | 0.205 µM
COc1ccccc1C(=O)Nc1cn2cc(C34CCC(C)(C3)OC4)nc2c(OC)n1 (stereo not drawn) [Example 465, 2-methoxy-N-(8-methoxy-2-(1-methyl-2-oxabicyclo[2.2.1]heptan-4-yl)imidazo[1,2-a]pyrazin-6-yl)benzamide 2,2,2-trifluoroacetate] | 0.037 µM
COc1c(F)cccc1C(=O)Nc1cn2cc(C34CCC(C)(C3)OC4)nc2c(OC)n1 (stereo not drawn) [Example 466, 3-fluoro-2-methoxy-N-(8-methoxy-2-(1-methyl-2-oxabicyclo[2.2.1]heptan-4-yl)imidazo[1,2-a]pyrazin-6-yl)benzamide 2,2,2-trifluoroacetate] | 0.059 µM
COc1nc(NC(=O)c2cccc(C)c2F)cn2cc(C34CCC(C)(C3)OC4)nc12 (stereo not drawn) [Example 467, 2-fluoro-N-(8-methoxy-2-(1-methyl-2-oxabicyclo[2.2.1]heptan-4-yl)imidazo[1,2-a]pyrazin-6-yl)-3-methylbenzamide 2,2,2-trifluoroacetate] | 0.051 µM
